Experimental findings from patent publication US9107954B2, “Bivalent ligands for the treatment of neurological disorders” (Virginia Commonwealth University, priority 2012, dated 2015) are described below.

As usually defined, the Ki is a dissociation constant, usually derived from enzyme kinetics or from competition with a known ligand. As a reminder, the Emax is the size of the effect at its maximum, as opposed to the concentration needed. By IC50 is commonly meant the point on the concentration scale where inhibition reaches its midpoint.

In one assay the test system is IL-6. The assay is described as follows: Cytokine release ELISA, HIV-1 infected astroglia supernatant: IL-6. The format is cell-based, human. The note with it: 18-20 h; bivalent ligand ± morphine. As to the method:
The protein levels of the cytokines TNF-α, IL-6, IL-1β and the chemokine RANTES were measured by ELISA (Quantikine kits; R&D Systems Minneapolis, Minn.).
After 18-20 h exposure, supernatant was removed and analyzed by ELISA to quantitatively analyze the release of the cytokines TNF-α, IL-1β and IL-6 and the chemokine RANTES.
In general terms: In an ELISA, binding on a coated surface is turned into a signal by an enzyme label.

The target of assay [1] is CCR5 (Macaca mulatta (Rhesus macaque), UniProt P61813). The assay is described as follows: CCR5 competitive radioligand binding, [125I]MIP-1α, Chem-1 cell membrane preparations. Conditions: mean of three experiments, read-out: Radioligand binding Ki ± SEM. The procedure: Afterwards, the pharmacological profile of bivalent ligand 1 at the chemokine receptor CCR5 was characterized similarly. The competitive radioligand binding assay was conducted in CCR5 rhesus macaque membrane preparations from Chem-1 cells.

A further assay deals with HIV-1 in microglia. Briefly: HIV-1 entry in microglia (data not shown). The note with it: at the concentrations used (100 nM). The assay is classed as cell-based.
Assay [2] deals with CCR5. The assay is described as follows: Flow cytometry of CCR5 immunofluorescence in HIV-1 infected primary human astrocytes. The note with it: maraviroc co-exposure; bivalent ligand ± morphine. The format is cell-based. As to the method:
(§1) MOR and CCR5 immunoreactivity were detected by direct immunofluorescence in astroglial cells by flow cytometric analysis. Cells were washed in phosphate-buffered saline (PBS)-0.1% bovine serum albumin (BSA) buffer and incubated with primary MOR antibody followed by a secondary antibody conjugated to allophycocyanin (APC) (Biolegend, Inc; catalog #408001) and Alexa Fluor® 488 conjugated anti-mouse CD195 (CCR5) antibody (Biolegend, Inc; catalog #107008) in permeabilization buffer (PBS-0.1% BSA-0.1% Triton X-100) at a 1:500 dilution. Fluorescence was measured from 10,000 gated cells per treatment in each experiment using a FACSCanto II flow cytometer (BD Biosciences, San Jose, Calif.). Auto-fluorescence was compensated by setting the detector voltage to the minimum level that discriminates between auto-fluorescence and specific immunofluorescence in both negative and positive controls. Isotype control antibodies were used to define settings in histogram plot analyses.
(§2) We quantitatively analyzed the effect of MVC and the bivalent compound on CCR5 and MOR expression levels in virally infected astrocytes by flow cytometry. […] Approximately 20,000 events were analyzed per treatment condition in each experiment and size discrimination was used as a crude method for viability determination.

For a further assay, the system named is CCR5 and MOR. The assay is described as follows: Flow cytometry of CCR5 and MOR co-localization in HIV-1 infected primary human astrocytes. The assay is classed as cell-based. As to the method: as §1, §2
The target in the next assay is mu opioid receptor (Homo sapiens (Human), UniProt P35372). The assay is described as follows: biochemical. Conditions: read-out: Emax, 35S-GTP[γS] binding. The procedure:
(§3) MOR/CHO cell culture and membrane homogenate preparation followed literature report^52.
(§4) For competition binding assay (agonists or antagonists), Hill plots linear regression analysis and the Cheng-Prusoff equation were applied to determine the IC50 and Ki values. In [^35S]GTPγS binding assays, agonist concentration effect curves were fit by non-linear regression to obtain Emax and EC50 values; antagonist inhibition of agonist-stimulated [^35S]GTPγS binding was analyzed by Hill analysis and AD50 values were corrected to Ki values using the Cheng-Prusoff equation. All analyses were using Prism 4.0.
(Binding of GTPγS marks nucleotide exchange on a G protein.)

Another assay concerns the target mu opioid receptor (MOR) (Homo sapiens (Human), UniProt P35372). The assay is described as follows: MOR competitive radioligand binding, [3H]naloxone, hMOR-expressed CHO cells. Conditions: Example 1, read-out: binding affinity to the mu opioid receptor, Ki. The procedure:
as §3
Saturation binding was performed by incubating membranes for 90 minutes at 30° C. with 0.5-15 nM [^3H]naloxone in assay buffer in a 0.5 mL volume. […] The reaction was terminated by rapid filtration through Whatman GF/B glass fiber filters, followed by 3 washes with 3 mL ice-cold Tris buffer. Bound radioactivity will be determined by liquid scintillation spectrophotometry at 45% efficiency for [^3H].
as §4
Herein is reported the characterization of this novel molecular probe in for its binding affinity, Ca^2+ flux functional activity, and HIV-1 inhibition potency.

The target of assay [3] is T1, CCR5 (Homo sapiens (Human), UniProt P51681). Briefly: Calcium mobilization assay, CCR5-MOR CHO co-expressed cell line (Gqi5), RANTES-stimulated. The assay is classed as cell-based. The note with it: cells stimulated with RANTES. The procedure: Having a cell line that consistently expresses both CCR5 and MOR was essential for studying how the two receptors interact with each other using calcium mobilization assays and cell fusion assays. A previously established MOR Chinese hamster ovarian (CHO) cell line was transfected with a plasmid containing CCR5 tagged with a yellow fluorescent protein on its N-terminus (CCR5-YFP). ^1 After 48 hours cells were sorted based upon the presence of the yellow fluorescent protein tag using a flow cytometer. Cells containing the tagged receptors were then cultured and used in the subsequent assays.
T1 sequence (P51681 whole entry, the tested form may be a part): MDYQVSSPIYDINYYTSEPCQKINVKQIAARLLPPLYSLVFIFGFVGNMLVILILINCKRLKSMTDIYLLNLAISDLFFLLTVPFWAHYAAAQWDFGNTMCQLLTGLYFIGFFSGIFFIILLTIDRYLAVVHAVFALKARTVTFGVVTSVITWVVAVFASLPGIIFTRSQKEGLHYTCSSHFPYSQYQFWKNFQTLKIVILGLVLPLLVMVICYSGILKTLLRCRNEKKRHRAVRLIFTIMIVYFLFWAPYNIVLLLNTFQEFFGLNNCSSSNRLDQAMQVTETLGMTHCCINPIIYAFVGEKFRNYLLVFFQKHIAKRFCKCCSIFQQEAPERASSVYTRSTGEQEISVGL
Calcium mobilization is directly related to G protein-coupled receptor (GPCR) activation and therefore is a useful technique to study the functional activity of new ligands.
Background: A change in cytosolic calcium serves as a functional read-out for many receptors and channels.

For assay [4], the target named is T1, CCR5. Briefly: Calcium mobilization assay in MOLT-4/CCR5 cells, RANTES-stimulated (Example 1). The note with it: CCR5/MOLT-4 cells. The assay is classed as cell-based. The procedure:
The ligands were first tested with various doses (in the range of 0.1 nM to 1 μM) for possible agonist activity. The protocol was the same for the following antagonism study, except no CCL5 (RANTES) was added. MOLT-4/CCR5 cells were plated in black 96-well plates with transparent bottom (Greinier Bio-one) at 100,000 cells per well in 50:1 HBSS:HEPES assay buffer. They were incubated for 1 hour at 37° C. and 5% CO2 with control buffer or varying concentration of ligand for a total volume of 130 μL per well. Cells were then incubated with 50 μL of Fluo-4-AM loading buffer (40 μL 2 μM Fluo-4 dye, 100 μL 2.5 mM probenacid, in 5 mL assay buffer) for an additional hour. Then 20μL 200 nM RANTES solution in assay buffer or assay buffer alone were added to the wells right before changes in Ca^2+ concentration were monitored by RFU for 90 seconds using a microplate reader (FlexStation3, Molecular Devices). Peak values were obtained using SoftMaxPro software (Molecular Devices) and non-linear regression curves were generated using Prism (GraphPad) to calculate IC50 values.

As to `Cc1nnc(C(C)C)n1C1CC2CCC(C1)N2CC[C@H](NC(=O)C1CCC(F)(F)CC1)c1ccc(NC(=O)COCC(=O)NCCCCCCCNC(=O)COCC(=O)N[C@@H]2CC[C@@]3(O)[C@H]4Cc5ccc(O)c6c5[C@@]3(CCN4CC3CC3)[C@H]2O6)cc1` (stereo partly shown) [bivalent ligand 1], in the assay with IL-6, the “fold decrease in IL-6 release compared to R5 HIV-1 alone” value stood at 1.6 fold. The results for the Ki at CCR5 [1] and at mu opioid receptor (MOR) were 239 ± 56 nM and 51.8 ± 7.9 nM, respectively. The “antiviral effect in microglia” value with HIV-1 in microglia was “only detected in astrocytes and not in microglia”. The “fold decrease in CCR5 expression levels compared to R5 HIV-1” value in the assay with CCR5 [2] is recorded as 1.8 fold. The “fold increase in astrocytes expressing both CCR5 and MOR compared to R5 HIV-1 alone” value with CCR5 and MOR amounted to 1.6 fold. Also, the Emax on mu opioid receptor turned out to be 11.7 ± 1.2%. The IC50 on CCR5 [3] stood at 6240 ± 251 nM; at CCR5 [4] (RANTES, read-out: calcium flux inhibition IC50) it was 231 ± 88 nM. Besides, the “agonism in calcium mobilization assay” value on CCR5 [4] (no RANTES added) is “no agonism”.
